Laboratory results published in ChEMBL document CHEMBL1201862, “PubChem BioAssay data set” (2004).
Activity calls are given as the source filed them.

Assays:
[1] = molecular target: Delta-type opioid receptor (Homo sapiens, UniProt P41143); test: SAR Analysis of Antagonists of the DOR Receptor using an Image-Based Assay - Set 3. [Related pubchem assays (depositor defined):AID1777, AID1785]; type: functional;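 note: U2OS cells expressing DOR1 and beta-arrestin GFP stimulated with 100 nM SNC80; imaging of GFP-tagged beta-arrestin moving into spots after receptor activation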
Mu-type opioid receptor = Mu-type opioid receptor (Homo sapiens, UniProt P35372); test: SAR Analysis of Antagonists of the MOR Receptor using an Image-Based Assay - Set 3. [Related pubchem assays (depositor defined):AID1777, AID1785, AID1786, AID1966, AID2133, AID2136, AID2284, AID2285, AID2420]; type: functional
[2] = molecular target: T1, Kappa-type opioid receptor (Homo sapiens, UniProt P41145); test: SAR analysis of small molecule antagonists of the kappa opioid receptor via a luminescent beta-arrestin assay - Set 3. [Related pubchem assays (depositor defined):AID1777, AID1778, AID1785, AID1786, AID1966, AID2133, AID2136, AID2285, AID2495]; type: functional
[3] = molecular target: T1, Kappa-type opioid receptor; test: SAR analysis of Antagonists of the Kappa Opioid Receptor (KOR) using an Image-Based Assay - Set 3. [Related pubchem assays (depositor defined):AID1777, AID1785]; type: functional
[4] = molecular target: T2, Alkaline phosphatase, tissue-nonspecific isozyme (Homo sapiens, UniProt P05186); test: potency against alkaline phosphatase TNAP – biochemical, luminescent, dose response, SAR follow-up (AID 1056)
T2 sequence (P05186 whole entry): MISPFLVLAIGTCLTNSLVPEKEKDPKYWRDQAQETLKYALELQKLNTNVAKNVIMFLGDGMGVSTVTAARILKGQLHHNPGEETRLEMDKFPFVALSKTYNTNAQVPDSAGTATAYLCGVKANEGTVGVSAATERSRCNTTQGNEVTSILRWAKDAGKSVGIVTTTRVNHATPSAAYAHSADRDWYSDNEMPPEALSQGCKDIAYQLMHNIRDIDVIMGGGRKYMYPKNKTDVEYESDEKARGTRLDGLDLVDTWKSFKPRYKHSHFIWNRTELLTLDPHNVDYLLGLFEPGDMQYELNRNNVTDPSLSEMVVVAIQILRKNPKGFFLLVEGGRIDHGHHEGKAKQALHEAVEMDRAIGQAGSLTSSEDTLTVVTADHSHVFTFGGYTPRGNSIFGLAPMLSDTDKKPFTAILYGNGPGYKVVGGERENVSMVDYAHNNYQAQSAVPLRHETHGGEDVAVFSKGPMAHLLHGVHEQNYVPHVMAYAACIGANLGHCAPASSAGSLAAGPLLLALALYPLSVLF

[5] = molecular target: Alkaline phosphatase, placental type (Homo sapiens, UniProt P05187); test: human placental alkaline phosphatase inhibition – biochemical, luminescence, confirmation (AID 1512); type: functional
Hexokinase = Hexokinase (Trypanosoma brucei, UniProt Q38C41); test: Confirmation assay for inhibitors of Trypanosoma brucei hexokinase 1-Analogue-first series. [Related pubchem assays (depositor defined):AID1430, AID1632, AID2516, AID2560, AID2579, AID2600, AID449725, AID492951]; type: functional
CAAX prenyl protease 2 = CAAX prenyl protease 2 (Saccharomyces cerevisiae S288c, UniProt Q03530); type: biochemical
[6] = molecular target: T3, Mannose-6-phosphate isomerase (Homo sapiens, UniProt P34949); test: phosphomannose isomerase inhibition – biochemical, fluorescence intensity, confirmation (AID 1535)
T3 sequence (P34949 whole entry): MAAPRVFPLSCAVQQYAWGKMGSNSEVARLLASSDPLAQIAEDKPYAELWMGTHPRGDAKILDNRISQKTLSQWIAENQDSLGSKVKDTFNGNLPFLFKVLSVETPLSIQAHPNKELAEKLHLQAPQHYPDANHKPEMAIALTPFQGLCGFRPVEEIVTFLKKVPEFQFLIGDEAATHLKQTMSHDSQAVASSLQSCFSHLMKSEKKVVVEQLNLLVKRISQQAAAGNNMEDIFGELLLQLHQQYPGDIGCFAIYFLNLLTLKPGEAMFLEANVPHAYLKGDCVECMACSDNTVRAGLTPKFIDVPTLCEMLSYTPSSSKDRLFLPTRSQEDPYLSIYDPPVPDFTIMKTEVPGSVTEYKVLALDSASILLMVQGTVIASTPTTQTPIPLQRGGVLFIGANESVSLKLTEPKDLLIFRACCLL

Phosphomannomutase 2 = Phosphomannomutase 2 (Homo sapiens, UniProt O15305); test: Counter screen SAR assay for PMM2 inhibitors via a fluorescence intensity assay. [Related pubchem assays (depositor defined):AID1545, AID1574]
Integrin alpha-L = Integrin alpha-L (Mus musculus, UniProt P24063); test: modulators of CD8 T cell-vesicle binding, dose response, powder samples, mouse 2C CD8+ cells (AID 504565); type: functional
Perilipin-1/ABHD5 = Perilipin-1/ABHD5 (Homo sapiens, UniProt O60240+Q8WTS1); test: Luminescence-based biochemical high throughput dose response assay for inhibitors of the interaction of the lipase co-activator protein, abhydrolase domain containing 5 (ABHD5) with perilipin-1 (PLIN1) (2K validation set). [Related pubchem assays (depositor defined):AID493027, AID493057]
[7] = molecular target: 1-acylglycerol-3-phosphate O-acyltransferase ABHD5/Perilipin-5 (Homo sapiens, UniProt Q00G26+Q8WTS1); test: Luminescence-based biochemical high throughput dose response assay for inhibitors of the interaction of the lipase co-activator protein, abhydrolase domain containing 5 (ABHD5) with perilipin-5 (MLDP; PLIN5) (2K validation set). [Related pubchem assays (depositor defined):AID493035, AID493241]
[8] = molecular target: T4, Small ubiquitin-related modifier 2 (Homo sapiens, UniProt P61956); test: disruption of SUMO2 interaction with SIM peptide – biochemical, fluorescence polarization, uHTS hits, selectivity assay for SUMO1 interaction inhibitor project, dose response (AID 624385); type: functional; settings: read-out: IC50_Mean
Vero = test: viability of Vero cells under compound – cytotoxicity control for flavivirus capping enzyme inhibitors (AID 588742); type: functional; settings: Chlorocebus sabaeus
[9] = molecular target: T5, Small ubiquitin-related modifier 1 (Homo sapiens, UniProt P63165); test: SUMO1 protein interaction blockers, potency – biochemical, fluorescence polarization, uHTS hits, dose response (AID 624382); type: functional; settings: read-out: IC50_Mean
[10] = molecular target: T5, Small ubiquitin-related modifier 1; test: SUMO1 protein-protein binding blockers, potency – biochemical, FRET, dose response (AID 624383); type: functional; settings: read-out: IC50_Mean
[11] = molecular target: T4, Small ubiquitin-related modifier 2; test: SUMO2 binding disruption by SUMO1 hits – biochemical, FRET, human SUMO2, uHTS hits, selectivity assay for SUMO1 interaction inhibitor project, dose response (AID 624384); type: functional; settings: read-out: IC50_Mean
Protein RecA = molecular target: T6, Protein RecA (Mycobacterium tuberculosis, UniProt P9WHJ3); test: Fluorescence Cell-Free Homogeneous Dose Retest to Identify Inhibitors of RecA-Intein Splicing Activity. [Related pubchem assays (depositor defined):AID2097, AID2223, AID489010, AID492950]; type: functional
T6 sequence (P9WHJ3 whole entry): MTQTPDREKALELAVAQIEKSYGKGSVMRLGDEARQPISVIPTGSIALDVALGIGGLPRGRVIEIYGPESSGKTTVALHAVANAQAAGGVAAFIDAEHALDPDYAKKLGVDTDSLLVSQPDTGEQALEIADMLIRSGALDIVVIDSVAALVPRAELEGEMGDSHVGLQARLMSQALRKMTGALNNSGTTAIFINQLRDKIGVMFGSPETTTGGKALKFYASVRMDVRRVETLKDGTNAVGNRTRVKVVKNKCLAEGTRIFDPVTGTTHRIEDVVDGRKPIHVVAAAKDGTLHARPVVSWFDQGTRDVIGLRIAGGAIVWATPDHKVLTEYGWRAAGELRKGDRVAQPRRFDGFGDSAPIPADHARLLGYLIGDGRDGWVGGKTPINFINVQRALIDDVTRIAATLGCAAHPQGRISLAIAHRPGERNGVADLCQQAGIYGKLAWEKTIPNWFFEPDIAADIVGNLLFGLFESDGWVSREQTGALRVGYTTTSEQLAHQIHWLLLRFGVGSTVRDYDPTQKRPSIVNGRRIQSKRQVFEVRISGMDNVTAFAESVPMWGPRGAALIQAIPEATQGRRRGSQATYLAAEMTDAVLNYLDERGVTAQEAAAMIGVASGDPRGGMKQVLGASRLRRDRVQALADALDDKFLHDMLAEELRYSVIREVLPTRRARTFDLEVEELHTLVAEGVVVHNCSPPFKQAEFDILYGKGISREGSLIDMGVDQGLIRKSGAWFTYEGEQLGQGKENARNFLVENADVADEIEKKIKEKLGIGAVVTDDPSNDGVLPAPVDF

[12] = molecular target: T7, Replicative DNA helicase DnaB (Mycobacterium tuberculosis, UniProt P9WMR3); test: DnaB intein splicing inhibitors, dose response, biochemical, cell-free fluorescence (AID 449749); type: functional
T7 sequence (P9WMR3 whole entry): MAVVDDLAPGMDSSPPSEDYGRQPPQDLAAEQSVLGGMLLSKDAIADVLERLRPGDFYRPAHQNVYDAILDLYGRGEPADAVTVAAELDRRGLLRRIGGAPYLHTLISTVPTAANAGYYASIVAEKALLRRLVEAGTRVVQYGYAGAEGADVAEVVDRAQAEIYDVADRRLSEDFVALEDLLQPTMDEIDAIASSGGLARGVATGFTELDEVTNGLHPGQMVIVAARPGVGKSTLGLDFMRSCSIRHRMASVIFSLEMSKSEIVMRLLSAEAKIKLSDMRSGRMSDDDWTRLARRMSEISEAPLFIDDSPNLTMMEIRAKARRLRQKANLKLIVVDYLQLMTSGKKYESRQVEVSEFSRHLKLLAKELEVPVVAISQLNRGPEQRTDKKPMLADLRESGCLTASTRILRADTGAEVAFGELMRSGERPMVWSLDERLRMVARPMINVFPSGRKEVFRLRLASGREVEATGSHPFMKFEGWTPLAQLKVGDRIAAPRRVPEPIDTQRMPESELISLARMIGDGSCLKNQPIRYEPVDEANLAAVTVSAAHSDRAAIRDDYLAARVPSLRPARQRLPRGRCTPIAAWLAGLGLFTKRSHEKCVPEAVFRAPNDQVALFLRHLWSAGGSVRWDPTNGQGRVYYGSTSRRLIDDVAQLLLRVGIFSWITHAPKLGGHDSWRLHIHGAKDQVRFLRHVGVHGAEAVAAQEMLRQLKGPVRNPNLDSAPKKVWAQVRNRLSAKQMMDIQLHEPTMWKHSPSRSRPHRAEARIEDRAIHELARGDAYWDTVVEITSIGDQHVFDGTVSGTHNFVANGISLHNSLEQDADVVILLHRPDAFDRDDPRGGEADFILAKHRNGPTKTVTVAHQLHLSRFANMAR

Genome polyprotein = Genome polyprotein (dengue virus type 2, UniProt P29990); test: flavivirus cap methylation enzyme inhibition – biochemical, confirmation dose response, primary screen (AID 588689); type: functional
Troponin, cardiac muscle = Troponin, cardiac muscle (Homo sapiens, UniProt P19429+P45379+P63316); test: compounds desensitizing RTF to calcium – biochemical, fluorescence, cardiac regulated thin filaments, triplicate IC50, dose response (AID 504742); type: protein-complex assay
[13] = CCR5-tropic HIV-1 fusion blockers – cell-based, CCR5-tropic Env, dose response (AID 2279); type: functional
[14] = molecular target: Dual specificity tyrosine-phosphorylation-regulated kinase 1A (Rattus norvegicus, UniProt Q63470); type: biochemical, Homo sapiens

CCN(CCNC(=O)c1ccc(CNS(=O)(=O)c2ccc(OC)cc2)cc1)Cc1ccccc1
IC50 [1]: > 32 µM (inactive) | IC50 (Mu-type opioid receptor): 12.6 µM (inactive) | IC50 [2]: 16.3 µM (inactive) | IC50 [3]: 10.8 µM (inactive)

O=C(NC1(C(Cl)(Cl)Cl)Oc2ccccc2O1)OCN1C(=O)C2C=CC=CC2C1=O (centres undefined)
IC50 [4]: > 100 µM (inactive) | IC50 [5]: > 100 µM (inactive)

CC(C)(C)c1ccc(C(=O)Nc2cc(Cl)ccc2-c2nnn[nH]2)cc1
IC50 (Hexokinase): 3.46 µM (active)

O=C(CCNC(=O)N1CC(=O)Nc2ccccc21)NCCc1cccc(F)c1
AC50 (CAAX prenyl protease 2): 0.359 µM (active)

Cc1csc(-n2sc3ccccc3c2=O)n1
IC50 [6]: > 50 µM (inactive) | IC50 (Phosphomannomutase 2): > 100 µM (inactive)

Cc1ccccc1C(=O)N1CCC(C(=O)Nc2ccc(C)c(S(=O)(=O)N3CCCCC3)c2)CC1
EC50 (Integrin alpha-L): 29.1 µM (inactive)

O=C(CN1CC[n+]2c(-c3cccs3)csc21)c1ccc(Br)cc1
IC50 (Perilipin-1/ABHD5): 27.5 µM (inactive) | IC50 [7]: 14.8 µM (inactive)

O=[N+]([O-])c1cc([N+](=O)[O-])c2oc(-c3ccccc3)c(Br)c2c1O
IC50 [8]: 3.44 µM (active) | CC50 (Vero): 17.9 µM (active) | IC50 [9]: 4.09 µM (active) | IC50 [10]: 50.9 µM (inactive) | IC50 [11]: > 66 µM (inactive) | EC50 (Protein RecA): 111 µM (active) | AC50 [12]: 3.08 µM (active) | IC50 (Genome polyprotein): 43.8 µM (active) | IC50 (Troponin, cardiac muscle): > 23.8 µM (inactive) | IC50 [13]: 16.3 µM (active) | AC50 [14]: 1.94 µM (active)
